The record followed here is a melting point compilation (Tetko et al.).

The structures appear in SMILES notation.

Take `NC(=O)Cc1ccc(N)cc1`: the melting point fell in the range of 157 to 159 °C.
As for `Nc1nc(-c2ccc(C3CCCCC3)cc2)cs1`, the melting point lay in the range of 227 to 229 °C.
In the case of `Cc1nn(CCCl)c(C)c1C(=O)O`, the melting point fell in the range of 139 to 141 °C.
Compound `NCc1ccc2c(c1)CCO2` returned a melting point of 38 to 40 °C.
As for `Cc1cc(=O)[nH]n1C`, the figure is 169 to 171 °C.
Compound `Nc1nc2c(F)c(Cl)ccc2s1` displayed a melting point of 80 to 82 °C.
Take `CCCCCCOc1ccc(C=O)cc1OC`: the melting point lay within 38 to 42 °C.
For `CNC(C)c1sc(-c2ccc(C)cc2)nc1C` (centres undefined), the melting point was 77 to 79 °C.
Regarding `COc1ccccc1-c1nc(C(=O)O)cs1`, the melting point lay in the range of 184 to 186 °C.
As to `O=C(O)c1cc(S(=O)(=O)Cl)c(Cl)cc1F`, the melting point was in the range of 144 to 146 °C.
On to `O=C(O)C1CCN(C(=O)NC2CC2)CC1`, for which the melting point was in the range of 123 to 125 °C.
Compound `O=C(NCc1ccc(C(=O)O)cc1)OCc1ccccc1` showed a melting point of 190 to 192 °C.
The same measure for `O=C(O)c1noc(-c2cc(Cl)ccc2F)n1`: 113 to 115 °C; for `COc1cc(NC(=O)C2CC2C)c(C(=O)O)cc1OC` (centres undefined): 207 to 209 °C.
In the case of `O=S(=O)(c1cccc2cnccc12)N1CCCNCC1`, the melting point lay in the range of 146 to 148 °C.
In turn, `O=C(CC(=O)Nc1ccccc1)Nc1ccccc1` came in with a melting point of 220 to 222 °C.
In the case of `NC(=S)CC1CC1`, the melting point fell in the range of 68 to 70 °C.
As to `Cn1ccc(C(=O)N2CCC(CO)CC2)cc1=O`, the melting point was in the range of 174 to 176 °C.
As for `O=C1Cn2ccnc2CN1`, the figure is 179 to 181 °C.
For `COc1ccc([N+](=O)[O-])cc1NS(=O)(=O)c1ccc(Cl)c(C(=O)O)c1`, the melting point fell in the range of 221 to 223 °C.
The same measure for `CC(O)C(C)c1ccc2ccccc2n1` (centres undefined): 69 to 71 °C; for `O=C(O)CCCNC(=O)OCc1ccccc1`: 60 to 64 °C.
Regarding `O=C(O)c1cc(C2CC2)on1`, the melting point was 97 to 99 °C.
As for `Cc1ccc(C#N)cc1N`, the figure is 76 to 78 °C; as for `Nc1cc(C2CC2)nn1-c1ncccn1`, 144 to 146 °C; as for `O=C(O)c1ccnc2ncnn12`, 259 to 261 °C.
The compound `CCc1nnn[nH]1` displayed a melting point of 93 to 95 °C.
Take `O=C(O)c1ccc([N+](=O)[O-])s1`: the melting point was in the range of 143 to 151 °C.
In the case of `COC(=O)C(=O)CC(=O)c1ccc(Cl)cc1Cl`, the melting point fell in the range of 118 to 120 °C.
As to `NC(=S)CN1CCOCC1`, the melting point was in the range of 178 to 180 °C.
As to `O=C(O)CCCN1CCOC1=O`, the melting point lay within 73 to 75 °C.
For `CC(Cl)C(=O)NC1CCCC1` (centres undefined), the melting point fell in the range of 111 to 113 °C.
`COc1ccc(C2C(C(=O)O)CCC(=O)N2c2ccc(OC)cc2)cc1` (centres undefined) showed a melting point of 178 to 180 °C.
For `NNc1ccc(S(=O)(=O)NC2CC2)cc1`, the melting point was 134 to 136 °C.
On to `CCOc1ccc(NC(=O)CC#N)cc1`, for which the melting point lay in the range of 95 to 100 °C.
`COC(=O)Cc1ccc(S(=O)(=O)Cl)s1`: the melting point was 59 to 61 °C.
In turn, `O=C(CCl)NCCOc1ccccc1` displayed a melting point of 67 to 69 °C.
Regarding `COc1ccc2c(c1)NCCCC2`, the melting point lay in the range of 46 to 48 °C.
`CCOc1ccc(Br)cc1S(=O)(=O)Nc1ccc(N)cc1`: the melting point lay in the range of 77 to 79 °C.
Turning to `CCOC(=O)c1ccn(-c2ccc(N)cc2)n1`, the melting point fell in the range of 97 to 99 °C.
The compound `Nc1nnc(-c2ccc3c(c2)OCCO3)o1` returned a melting point of 247 to 249 °C.
The same measure for `OCc1ccc2[nH]nnc2c1`: 146 to 148 °C; for `O=c1[nH]cnc2cc3ccccc3cc12`: 282 to 284 °C; for `CC(C)(C)OC(=O)N1CCC(COS(C)(=O)=O)CC1`: 84 to 86 °C.
`CCN1CCN(c2ccc(C#N)cn2)CC1` came in with a melting point of 69 to 71 °C.
As to `COc1cc(C(C)=O)ccc1OCC(=O)O`, the melting point lay in the range of 165 to 167 °C.
Consider `NCC(O)c1ccc(OC(F)F)cc1` (centres undefined), for which the melting point fell in the range of 54 to 56 °C.
`NCCCN1C(=O)NC2(CCCCC2)C1=O`: the melting point was 124 to 126 °C.
Turning to `NS(=O)(=O)c1cccc(N2C(=O)C=CC2=O)c1`, the melting point lay in the range of 220 to 222 °C.

For orientation: melting point means the temperature of the solid-liquid transition.
